Source: ChEMBL document CHEMBL1133897, “Synthesis, antimalarial activity and inhibition of haem detoxification of novel bisquinolines” (Bioorg Med Chem Lett, 2001)

Legend:
Plasmodium falciparum [1] = experiment: Growth inhibition of chloroquine-resistant Plasmodium falciparum KI; format: functional, organism-based
Plasmodium falciparum [2] = experiment: Growth inhibition of chloroquine-sensitive Plasmodium falciparum D10; format: functional, organism-based
Plasmodium falciparum [3] = experiment: Inhibition of hydrogen peroxide-mediated haem detoxification in Plasmodium falciparum; format: functional, organism-based
[4] = biological target: T1, Histidine-rich protein PFHRP-II (Plasmodium falciparum, UniProt P05227); experiment: Inhibition of beta-hematin formation in Plasmodium falciparum; format: functional
T1 sequence (P05227 whole entry): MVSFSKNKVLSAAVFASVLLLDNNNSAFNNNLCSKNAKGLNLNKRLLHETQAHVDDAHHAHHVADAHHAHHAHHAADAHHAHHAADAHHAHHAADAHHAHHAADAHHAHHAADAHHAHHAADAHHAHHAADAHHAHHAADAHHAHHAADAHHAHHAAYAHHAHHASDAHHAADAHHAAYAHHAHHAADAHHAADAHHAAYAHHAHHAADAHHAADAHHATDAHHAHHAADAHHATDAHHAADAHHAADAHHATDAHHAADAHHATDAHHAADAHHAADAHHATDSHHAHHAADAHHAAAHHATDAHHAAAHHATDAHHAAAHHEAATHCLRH

| Compound | IC50 (Plasmodium falciparum [1]) [nM] | IC50 (Plasmodium falciparum [2]) [nM] | IC50 (Plasmodium falciparum [3]) [µM] | IC50 [4] [µM] |
| --- | --- | --- | --- | --- |
| CCC1CN2CCC1CC2C(O)c1ccnc2c(CNC(=O)CCCCCCCCC(=O)Nc3cccc4c(C(O)C5CC6CCN5CC6CC)ccnc34)cccc12 (stereo unspecified) | 20 | 50 |  |  |
| OC(c1cc(C(F)(F)F)nc2c(C(F)(F)F)cccc12)C1CCCCN1 (stereo unspecified) [MEFLOQUINE] |  | 90 | 30 |  |
| CCN(CC)CCCC(C)Nc1cc(CCCCCCCCCCc2cc(NC(C)CCCN(CC)CC)c3ccccc3n2)nc2ccccc12 (stereo unspecified) | 16 | 154 | 80 | 94 |
| CCN(CC)CCCC(C)Nc1cc(CCCCCCCCCCCCc2cc(NC(C)CCCN(CC)CC)c3ccccc3n2)nc2ccccc12 (stereo unspecified) | 17 | 43 | 37 | 86 |
| CCN(CC)CCCC(C)Nc1cc(CCCCCCCCc2cc(NC(C)CCCN(CC)CC)c3ccccc3n2)nc2ccccc12 (stereo unspecified) | 25 | 123 | 81 | 97 |
